The text below walks through data of article PMC8772772, “Enantioselective Synthesis and Pharmacological Evaluation of Aza-CGP37157–Lipoic Acid Hybrids for the Treatment of Alzheimer’s Disease” (Antioxidants, 2022).

Data set [1] has as its system SH-SY5Y neuroblastoma cells. In words: Neuroprotection against okadaic acid hyperphosphorylation in SH-SY5Y cells (MTT). The data set is classed as cell-based, human. The conditions noted are these: compound 1 μM 24 h, then compound + OA 24 h; for % Survival: basal = 100, OA alone 54.7; for % Protection: n.p = compound does not protect cells. Here is the method:
(§1) Human neuroblastoma SH-SY5Y cells were plated in 96-well clear multi-well plates (6 × 10^4 cells/well). The potential neuroprotective activity of compounds against OS was evaluated using the rotenone (30 μM) (SigmaAldrich, R8875) and oligomycin A (10 μM) (SigmaAldrich, 75351) (R/O) toxic mixture. Neuroprotection activity against Tau hyperphosphorylation was evaluated by using the okadaic acid (20 nM) model. Cells were pre-incubated with each compound (1 µM) for 24 h, and then treatments were removed and cells were incubated with compounds (1 µM) in the presence the corresponding toxic for additional 24 h. At the end of the experiments, viability was determined by the MTT method. Data were normalized from cell death induced by the toxic stimuli (considered as 100% cell death). Then, the protection percentages were calculated by subtracting from the death induced by toxic stimuli, the death in the presence of the compound.
(§2) The tetrazolium ring of MTT can be cleaved by active dehydrogenases to produce a formazan precipitate. At the end of the experiments, MTT (SigmaAldrich, M2003) stock solution was added to each well to achieve a final concentration of 0.5 mg/mL. Cells were incubated for 2 h. Thereafter, culture media was removed, and DMSO was added to each well to dissolve the formazan precipitate. Finally, absorbance was measured in a microplate reader (SPECTROstar nano, BMG Labtech) at 570 nm. Absorbance obtained in basal conditions was considered as 100% cell viability.
Considering these precedents, we envisaged the evaluation of our compounds in a hyperphosphorylation toxicity model induced by okadaic acid (OA), a protein phosphatase 2A inhibitor [58, 59]. This inhibition causes an imbalance between kinase and phosphatase action, leading to hyperphosphorylation of proteins, in particular, Tau. Thus, treatment of SH-SY5Y neuroblastoma cells with OA is a well-stablished model of Tau hyperphosphorylation. Similarly, to the method used for the OS model, we selected a pre-incubation/co-incubation protocol to evaluate the potential neuroprotection capacity related to the NRF2 induction/antioxidant properties of the compounds. Cells were treated with compounds (±)-6, R-6, S-6 or 7a–d (1 µM) during 24 h; thereafter, cells were co-treated with compounds (1 µM) and OA (20 nM) for a further 24 h. Melatonin was also included as a positive control. Finally, cellular viability was evaluated by the MTT method. […] Finally, the (R,S)-7c diastereomer was not able to afford any protection, a result that might be in line with its low NRF2 induction capacity.

The test system of data set [2] is NRF2. As to conditions: AREc32 cells, 24 h; Table S1; ref [2] of the supplement; cited from earlier work.
For data set [3], the system named is SH-SY5Y neuroblastoma cells. Nature of the data set: Neuroprotection against rotenone/oligomycin A oxidative stress in SH-SY5Y cells (MTT). Type of data set: cell-based, human. As to conditions: compound 1 μM 24 h, then compound + R/O (30/10 μM) 24 h; for % Survival: basal = 100, R/O alone 53.4. Here is the method:
as §1, §2
Thus, we selected a pre-incubation protocol to evaluate their potential neuroprotective capacity based on the NRF2-induction activity and direct antioxidant effect. Compound pre-incubation would induce the expression of antioxidant enzymes regulated by the phase II antioxidant response, thus promoting cells’ survival. The co-incubation period would also evaluate their capacity to trap free radicals produced by intoxicated mitochondria. SH-SY5Y neuroblastoma cells were treated with compounds (1 µM) during 24 h, and then cells were co-incubated with the corresponding compound at the same concentration and the R/O combination (30/10 µM) for additional 24 h. Melatonin, a well-known antioxidant natural neurohormone, was included as a positive control (1 µM). Previously reported racemic derivatives (rac-3a and (rac,R)-3b) and their precursors ((±)-6, R-6 and S-6) were included for comparative purposes at the same concentration.

Data set [4] can be described thus: DPPH reduction assay, antioxidant capacity. As to conditions: for IC50: mean ± SEM of three experiments; for DPPH Scavenging at 100 µM, %: compound 100 µM; for DPPH Scavenging at 100 µM, % / DPPH Scavenging at 1mM, %: DPPH 100 µM, 30 min, mean ± SEM; for DPPH Scavenging at 1mM, %: compound 1 mM. The method, then: Antioxidant capacity was evaluated by using described procedure slightly modified. Compounds (0.1 and 1 mM, final concentration) were diluted in assay media (EtOH/H2O, 70:30) and mixed with 100 μL of DPPH (SigmaAldrich, D9132, Madrid, Spain) solution (100 μM final concentration) in a clear 96-multiwell plate. Final solution was kept in dark for 30 min, and absorbance of DPPH was measured in a SpectroStar Nano plate-reader (BMG Labtech, Ortenberg, Germany) in duplicate at […]. All experiments included a blank (assay media), control (DPPH 100 μM) and a positive control (ascorbic acid, 100 μM). Data were evaluated as % absorbance (Abs) reduction of control after subtracting blank absorbance. % DPPH reduction = [100 − ((Abssample − Absblank) × 100]/Abscontrol
Initially, we evaluated the free-radical-scavenging capacity of derivatives 7a–d in the DPPH assay, based on the capacity of the tested derivatives to react with the 2,2-diphenyl-1-picrylhydracil radical to generate a non-radical derivate. Hybrid derivatives 7a–d were evaluated at two different concentrations (0.1 and 1 mM), considering the activities of previously reported racemic derivatives. […] Ascorbic acid was used as a positive control, and CGP37157, rac-3a and (rac,R)-3b were included as references. […] Those results are similar to those obtained for racemic mixtures 3a and 3b and a mixture of (S,R)-7b and (R,R)-7d obtained from rac-3 and R-lipoic acid.

Data set [5] can be described thus: Cytotoxicity in SH-SY5Y cell line (MTT). Type of data set: cell-based. The conditions noted are these: human. Here is the method: SH-SY5Y human neuroblastoma cells were seeded in 96-well clear multi-well plates (6 × 10^4 cells/well). Cells were treated with increasing concentrations of compounds (10, 30 and 100 μM) for 24 h. Thereafter, viability was assessed by the MTT method. Cytotoxic concentration to observe 50% mortality (CC50) values for compounds were interpolated from dose–response curves represented as percentage of cell death vs. concentration of compound, fitted by non-linear regression and data interpolated to value 50.
as §2
In order to evaluate the potential pharmacological profile of new compounds, we first tested the potential neurotoxicity in the neuroblastoma SHSY5Y cell line. Toxicity was evaluated at increasing concentrations (10, 30 and 100 μM), and toxicity was measured as MTT reduction capability. CC50 values were calculated by non-linear regression of curves % survival vs. concentration (Supplementary Materials Figure S2). CGP37157 and previously studied racemic derivatives rac-3a and (rac,R)-3b were included as reference compounds. As previously described, LA is a non-neurotoxic compound at the concentrations texted.

Data set [6] relates to NRF2. Nature of the data set: NRF2 induction, luciferase expression in AREc32 cell line. Type of data set: cell-based. As to conditions: AREc32 cells, 0.3, 3, 10 and 30 μM (LA: 0.1–0.6 mM), 24 h; mean ± SEM. Here is the method: AREc32 cell line was kindly shared by Professor Roland Wolf (University of Dundee, UK). AREc32 cells were maintained in DMEM/glutamax/high glucose (Gibco, 61965-06, Madrid, Spain), supplemented with 1% penicillin–streptomycin (10,000 units) (SigmaAldrich, P4333, Madrid, Spain), geneticin (0.8 mg/mL) (Gibco, 11811-031) and 10% FBS (Gibco, 10270106), at 37 °C in a 5% CO2 air atmosphere. Cells were used from passage 4 to 18, and mycoplasma contamination was tested every 4 weeks. AREc32 cells were seeded in 96-well white plates (2 × 10^4 cells/well) for 24 h. Thereafter, cells were treated with each compound (0.3, 3, 10 and 30 µM) in duplicate for 24 h. Non-treated cells were included as basal luciferase expression and tert-butylhydroquinone (TBHQ, 10 μM) as positive control in each plate. Luciferase expression was evaluated by using the Luciferase Assay System (Promega, E1483, Madrid, Spain) by luminescence in an Orion II microplate luminometer (Berthold, Germany). Luciferase activity increase was normalized to basal conditions considered as 1. CD values (concentration required to double the luciferase activity) were calculated from dose–response curves of luciferase fold induction vs. compound concentration, fitted by non-linear regression and data interpolated to value 2.
To evaluate the influence of both stereogenic centers in the NRF2 induction capacity of aza-CGP37157-LA hybrids, we used the AREc32 cell line model by analyzing luciferase expression upon treatment with NRF2 inducers. AREc32 cells were exposed to increasing concentrations of tested compounds 7a–d (0.3, […], 10 and 30 μM) during 24 h; thereafter, luciferase expression was evaluated by luminescent assay to calculate the corresponding CD value (concentration to double luciferase expression). […] TBHQ was included as a positive control, and CGP37157, S- and R-LA, rac-3a and (rac,R)-3b and precursors derivatives (R-6 and S-6) were included for comparative purposes. […] Once R-LA is reduced, it might activate the phase II antioxidant response by acting as pro-oxidant over key Cys residues at KEAP1 to generate the corresponding lipoyl-cystinyl disulphide.

By IC50 is commonly meant the concentration that inhibits the measured activity by half. In general, CC50 refers to the concentration at which the toxic effect on the cells reaches its halfway point. Read a low CC50 as harm at low concentration.

Molecules are shown by their SMILES. Where two headings read alike, the source gives them in different places. Where only a bound is given, the exact number is not on record here.

With `O=C1CN(CCO)C(c2ccccc2Cl)c2cc(Cl)ccc2N1` (racemic) [(±)-6, (rac)-7-Chloro-5-(2-chlorophenyl)-4-(2-hydroxyethyl)-4,5-dihydro-1H-benzo[e][1,4]diazepin-2(3H)-one, reference compound], in data set [1], the “% Survival” value was found to be 69.1 ± 6.4% and the “% Protection” value came to 33.4%. In addition, the “CD (concentration required to double the specific luciferase activity)” value (from here on “CD”) in the data set on NRF2 [2] is more than 30 µM. Further, in data set [3], the “% Survival” value is 74.4 ± 4.1%.

In data set [4], `O=C1O[C@H]([C@@H](O)CO)C(O)=C1O` [Ascorbic acid, reference compound] gave an IC50 of 16.2 ± 0.7 µM.

As for `O=C1CN(CCO)[C@@H](c2ccccc2Cl)c2cc(Cl)ccc2N1` [Compound R-6, (5R)-7-Chloro-5-(2-chlorophenyl)-4-(2-hydroxyethyl)-4,5-dihydro-1H-benzo[e][1,4]diazepin-2(3H)-one], in data set [1], the “% Survival” value was 59.3 ± 10.6% and the “% Protection” value stood at 14.2%. The cytotoxic concentration (CC50) at 24 h in data set [5] is more than 100 µM. The “CD” value in the data set on NRF2 [6] was 11.8 ± 0.5 µM. Further, in data set [3], the “% Protection” value came to 45.7% and the “% Survival” value was 75.1 ± 2.9%. Further, in data set [4], the “DPPH Scavenging at 100 µM, %” value was 10.30 ± 1.10% and the “DPPH Scavenging at 1mM, %” value is 26.7 ± 1.3%.

With `O=C1CN(CCO)[C@H](c2ccccc2Cl)c2cc(Cl)ccc2N1` [Compound S-6, (5S)-7-Chloro-5-(2-chlorophenyl)-4-(2-hydroxyethyl)-4,5-dihydro-1H-benzo[e][1,4]diazepin-2(3H)-one], in data set [1], the “% Survival” value was determined as 71.5 ± 10.0% and the “% Protection” value is 41.9%. The CC50 at 24 h in data set [5] was more than 100 µM. Also, in the data set on NRF2 [6], the “CD” value worked out at 14.4 ± 0.2 µM. For the same compound, in data set [3], the “% Protection” value turned out to be 51.5% and the “% Survival” value came to 74.7 ± 2.5%. In addition, in data set [4], the “DPPH Scavenging at 100 µM, %” value was 8.47 ± 2.42% and the “DPPH Scavenging at 1mM, %” value worked out at 25.3 ± 1.5%.

Regarding `COc1ccc2[nH]cc(CCNC(C)=O)c2c1` [Mel, Melatonin, reference compound], in data set [1], the “% Survival” value turned out to be 70.3 ± 4.3% and the “% Protection” value stood at 31.1%. For the same compound, in data set [3], the “% Protection” value is listed as 46.1% and the “% Survival” value is on record as 68.0 ± 1.5%.

Regarding `Cc1c(C)c2c(c(C)c1O)CCC(C)(C(=O)O)O2` (stereo not shown) [Trolox, reference compound], in data set [4], the “DPPH Scavenging at 100 µM, %” value came out at 93.4 ± 0.5%; the “DPPH Scavenging at 1mM, %” value came out at 92.2 ± 0.5%; half-maximal inhibition (IC50) was put at 11.4 ± 1 µM.
